± gives the uncertainty stated by the source.
Assay: xn = mol fraction of the nth substance listed

C=CC(=O)OC + CCCCC(C)O
viscosity [mPa·s], 101 kPa
Conditions | 298.15 K | 308.15 K
x1 = 0.05507 | 3.631 ± 0.029 | 2.614 ± 0.025
x1 = 0.1 | 3.287 ± 0.026 | 2.387 ± 0.023
x1 = 0.1554 | 2.908 ± 0.023 | 2.136 ± 0.02
x1 = 0.1998 | 2.636 ± 0.021 | 1.953 ± 0.018
x1 = 0.2554 | 2.331 ± 0.018 | 1.746 ± 0.016
x1 = 0.2999 | 2.112 ± 0.017 | 1.596 ± 0.015
x1 = 0.3554 | 1.868 ± 0.015 | 1.428 ± 0.013
x1 = 0.3999 | 1.693 ± 0.014 | 1.305 ± 0.012
x1 = 0.4555 | 1.497 ± 0.012 | 1.167 ± 0.011
x1 = 0.4999 | 1.357 ± 0.011 | 1.067 ± 0.01
x1 = 0.5554 | 1.2 ± 0.01 | 0.954 ± 0.01
x1 = 0.5999 | 1.088 ± 0.01 | 0.872 ± 0.009
x1 = 0.6551 | 0.963 ± 0.009 | 0.781 ± 0.008
x1 = 0.7 | 0.872 ± 0.009 | 0.713 ± 0.008
x1 = 0.755 | 0.772 ± 0.008 | 0.638 ± 0.008
x1 = 0.7998 | 0.699 ± 0.008 | 0.583 ± 0.007
x1 = 0.8555 | 0.618 ± 0.007 | 0.522 ± 0.007
x1 = 0.8999 | 0.56 ± 0.007 | 0.477 ± 0.007
x1 = 0.9555 | 0.495 ± 0.007 | 0.426 ± 0.007

CCCCCOC(C)=O + CCOc1ccccc1
Conditions | viscosity [mPa·s]
298.15 K, 101 kPa, x2 = 0.5 | 0.855 ± 0.0085

CC(C)CO + C1COCCO1
298.15 K, 101 kPa
Conditions | viscosity [mPa·s]
x2 = 0.0416 | 2.787 ± 0.025
x2 = 0.125 | 2.14 ± 0.02
x2 = 0.2354 | 1.668 ± 0.015
x2 = 0.3104 | 1.489 ± 0.014
x2 = 0.4165 | 1.296 ± 0.012
x2 = 0.4739 | 1.231 ± 0.012
x2 = 0.5066 | 1.206 ± 0.011
x2 = 0.5756 | 1.153 ± 0.011
x2 = 0.5788 | 1.144 ± 0.011
x2 = 0.7141 | 1.107 ± 0.01
x2 = 0.7411 | 1.098 ± 0.01
x2 = 0.7859 | 1.107 ± 0.01
x2 = 0.832 | 1.099 ± 0.01
x2 = 0.8845 | 1.109 ± 0.01
x2 = 0.9419 | 1.131 ± 0.011

CCCCCOC(C)=O + CCCCCO
viscosity [mPa·s], 101.33 kPa
Conditions | x1 = 0.0982 | x1 = 0.1951 | x1 = 0.3024 | x1 = 0.4009 | x1 = 0.5015 | x1 = 0.6044 | x1 = 0.7081 | x1 = 0.8063 | x1 = 0.9007
293.15 K | 3.552 ± 0.36 | 3.076 ± 0.33 | 2.623 ± 0.29 | 2.266 ± 0.26 | 1.952 ± 0.24 | 1.675 ± 0.21 | 1.436 ± 0.2 | 1.241 ± 0.18 | 1.079 ± 0.17
303.15 K | 2.583 ± 0.29 | 2.279 ± 0.26 | 1.984 ± 0.24 | 1.747 ± 0.22 | 1.534 ± 0.2 | 1.343 ± 0.19 | 1.174 ± 0.17 | 1.034 ± 0.16 | 0.915 ± 0.15
313.15 K | 2.039 ± 0.24 | 1.811 ± 0.23 | 1.588 ± 0.21 | 1.407 ± 0.19 | 1.244 ± 0.18 | 1.097 ± 0.17 | 0.966 ± 0.16 | 0.857 ± 0.15 | 0.763 ± 0.14
323.15 K | 1.198 ± 0.18 | 1.103 ± 0.17 | 1.001 ± 0.16 | 0.924 ± 0.15 | 0.847 ± 0.15 | 0.776 ± 0.14 | 0.709 ± 0.14 | 0.652 ± 0.13 | 0.601 ± 0.13

CCCCCOC(C)=O + CCc1ccccc1
Conditions | viscosity [mPa·s]
298.15 K, 101 kPa, x2 = 0.089 | 0.7697 ± 0.0095

C=CC(=O)OCCCC + CCCCO
101.33 kPa
Conditions | viscosity [mPa·s]
293.15 K, x1 = 0.0999 | 2.173 ± 0.025
293.15 K, x1 = 0.2001 | 1.725 ± 0.021
293.15 K, x1 = 0.2999 | 1.448 ± 0.017
293.15 K, x1 = 0.3998 | 1.245 ± 0.015
293.15 K, x1 = 0.5002 | 1.117 ± 0.014
293.15 K, x1 = 0.6002 | 1.025 ± 0.013
293.15 K, x1 = 0.7002 | 0.9619 ± 0.013
293.15 K, x1 = 0.8 | 0.9168 ± 0.012
293.15 K, x1 = 0.9 | 0.8882 ± 0.012
303.15 K, x1 = 0.0999 | 1.718 ± 0.021
303.15 K, x1 = 0.1998 | 1.385 ± 0.017
303.15 K, x1 = 0.3006 | 1.185 ± 0.015
303.15 K, x1 = 0.3999 | 1.035 ± 0.013
303.15 K, x1 = 0.4992 | 0.9378 ± 0.013
303.15 K, x1 = 0.5983 | 0.8682 ± 0.012
303.15 K, x1 = 0.6991 | 0.8213 ± 0.011
303.15 K, x1 = 0.8002 | 0.784 ± 0.011
303.15 K, x1 = 0.9003 | 0.7678 ± 0.011
313.15 K, x1 = 0.1004 | 1.291 ± 0.016
313.15 K, x1 = 0.2001 | 1.018 ± 0.013
313.15 K, x1 = 0.3002 | 0.8796 ± 0.012
313.15 K, x1 = 0.3999 | 0.7948 ± 0.011
313.15 K, x1 = 0.4994 | 0.7351 ± 0.011
313.15 K, x1 = 0.5998 | 0.7091 ± 0.01
313.15 K, x1 = 0.6999 | 0.6745 ± 0.01
313.15 K, x1 = 0.7578 | 0.6676 ± 0.01
313.15 K, x1 = 0.8999 | 0.6659 ± 0.01

CC(C)CO + CS(C)=O
viscosity [mPa·s], 101.3 kPa
Conditions | x2 = 0.0944 | x2 = 0.1917 | x2 = 0.289 | x2 = 0.3884 | x2 = 0.4863 | x2 = 0.5874 | x2 = 0.6887 | x2 = 0.7913 | x2 = 0.8951
298.15 K | 2.785 ± 0.12 | 2.366 ± 0.11 | 2.056 ± 0.094 | 1.934 ± 0.089 | 1.879 ± 0.087 | 1.853 ± 0.086 | 1.858 ± 0.086 | 1.891 ± 0.087 | 1.918 ± 0.089
303.15 K | 2.424 ± 0.11 | 2.071 ± 0.095 | 1.847 ± 0.085 | 1.754 ± 0.082 | 1.703 ± 0.079 | – | 1.686 ± 0.079 | 1.693 ± 0.079 | 1.733 ± 0.081

C[NH+]1CCCC1=O.O=S(=O)([O-])c1ccccc1 + O
viscosity [mPa·s]
Conditions | 293.15 K | 298.15 K | 303.15 K | 308.15 K
100 kPa, x1 = 0.001798 | 1.074 ± 0.012 | 0.9472 ± 0.011 | 0.8439 ± 0.0098 | 0.7688 ± 0.0089
100 kPa, x1 = 0.003606 | 1.137 ± 0.013 | – | 0.8882 ± 0.01 | 0.8029 ± 0.0093
100 kPa, x1 = 0.005372 | 1.198 ± 0.014 | 1.053 ± 0.012 | 0.9316 ± 0.011 | –
100 kPa, x1 = 0.008042 | 1.285 ± 0.015 | – | 0.998 ± 0.011 | 0.8943 ± 0.01
100 kPa, x1 = 0.01069 | 1.372 ± 0.016 | 1.206 ± 0.014 | – | 0.9518 ± 0.011
100 kPa, x1 = 0.01421 | 1.491 ± 0.017 | – | – | –
100 kPa, x1 = 0.02115 | 1.749 ± 0.02 | – | – | –
100 kPa, x1 = 0.02631 | 1.971 ± 0.023 | 1.746 ± 0.02 | 1.541 ± 0.018 | 1.369 ± 0.016
100 kPa, x1 = 0.03141 | 2.217 ± 0.026 | 1.963 ± 0.023 | 1.737 ± 0.02 | 1.527 ± 0.018
101 kPa, x1 = 0.005347 | – | 1.055 ± 0.012 | – | –
101 kPa, x1 = 0.01545 | – | – | 1.185 ± 0.014 | –

O=C1OCCO1 + CNC(C)=O
313.15 K, 101.33 kPa
Conditions | viscosity [mPa·s]
x1 = 0.0747 | 2.732 ± 0.014
x1 = 0.1786 | 2.456 ± 0.012
x1 = 0.2841 | 2.246 ± 0.01
x1 = 0.3817 | 2.099 ± 0.009
x1 = 0.4799 | 1.984 ± 0.008
x1 = 0.5724 | 1.903 ± 0.008
x1 = 0.6726 | 1.845 ± 0.007
x1 = 0.7707 | 1.814 ± 0.007
x1 = 0.869 | 1.824 ± 0.007
x1 = 0.9684 | 1.893 ± 0.007

O=C1OCCO1 + COC(=O)OC
viscosity [mPa·s], 101.3 kPa
Conditions | x2 = 0.0802 | x2 = 0.166 | x2 = 0.2441 | x2 = 0.3467 | x2 = 0.4421 | x2 = 0.5442 | x2 = 0.6512 | x2 = 0.761 | x2 = 0.8513
298.15 K | 2.043 ± 0.016 | 1.83 ± 0.015 | 1.656 ± 0.013 | 1.452 ± 0.012 | 1.285 ± 0.011 | 1.127 ± 0.009 | 0.983 ± 0.008 | 0.854 ± 0.007 | 0.761 ± 0.007
313.15 K | 1.688 ± 0.014 | 1.506 ± 0.012 | 1.357 ± 0.011 | 1.184 ± 0.01 | 1.042 ± 0.009 | 0.91 ± 0.008 | 0.789 ± 0.007 | 0.682 ± 0.006 | 0.604 ± 0.006

CCCCCC + CCCO
viscosity [mPa·s]
Conditions | 298.15 K | 308.15 K
100 kPa, x1 = 0.0603 | 1.619 ± 0.021 | –
100 kPa, x1 = 0.0992 | 1.44 ± 0.019 | –
100 kPa, x1 = 0.2086 | 1.07 ± 0.014 | –
100 kPa, x1 = 0.4056 | 0.6737 ± 0.0086 | –
100 kPa, x1 = 0.5016 | 0.5493 ± 0.007 | –
100 kPa, x1 = 0.5979 | 0.4564 ± 0.0058 | –
100 kPa, x1 = 0.7014 | 0.3861 ± 0.0049 | –
100 kPa, x1 = 0.8029 | 0.3467 ± 0.0044 | –
100 kPa, x1 = 0.9039 | 0.3116 ± 0.004 | –
100 kPa, x1 = 0.9486 | 0.3029 ± 0.0039 | –
100 kPa, x2 = 0.0679 | 0.3219 ± 0.039 | 0.2901 ± 0.035
100 kPa, x2 = 0.1319 | 0.3383 ± 0.041 | 0.3038 ± 0.036
100 kPa, x2 = 0.2357 | 0.3688 ± 0.044 | 0.3515 ± 0.042
100 kPa, x2 = 0.3681 | 0.4378 ± 0.053 | 0.3916 ± 0.047
100 kPa, x2 = 0.4848 | 0.5309 ± 0.064 | 0.4635 ± 0.056
100 kPa, x2 = 0.5884 | 0.6557 ± 0.079 | 0.5724 ± 0.069
100 kPa, x2 = 0.6811 | 0.8015 ± 0.096 | 0.6603 ± 0.079
100 kPa, x2 = 0.7644 | 0.998 ± 0.12 | 0.8293 ± 0.1
100 kPa, x2 = 0.8398 | 1.172 ± 0.14 | 0.9551 ± 0.11
100 kPa, x2 = 0.9083 | 1.427 ± 0.17 | 1.177 ± 0.14
100 kPa, x2 = 0.9708 | 1.762 ± 0.21 | 1.427 ± 0.17
101.33 kPa, x2 = 0.1148 | 0.34 ± 0.005 | –
101.33 kPa, x2 = 0.1407 | 0.345 ± 0.005 | –
101.33 kPa, x2 = 0.2154 | 0.369 ± 0.005 | –
101.33 kPa, x2 = 0.3704 | 0.451 ± 0.006 | –
101.33 kPa, x2 = 0.5278 | 0.603 ± 0.008 | –
101.33 kPa, x2 = 0.6309 | 0.75 ± 0.01 | –
101.33 kPa, x2 = 0.7618 | 1.038 ± 0.013 | –
101.33 kPa, x2 = 0.8626 | 1.349 ± 0.017 | –
101.33 kPa, x2 = 0.9594 | 1.756 ± 0.023 | –

From the CheMixHub viscosity set
